Laboratory results reported in article PMC7849180 (Frontiers in Pharmacology, 2020).

Experiments:
[1] = Bone marrow micronucleus test; type: in vivo, NIH mice; settings: 122, 244, 488 mg/kg oral gavage, 4 days
Source text: Suzhou Zelgen Biopharmaceuticals Co., Ltd. Jaktinib Hydrochloride Tablets Chemical Drug Class 1 New Drug chromosomal structural aberrations in CHL cells. Therefore, the results of the chromosomal aberration test were negative.
Mouse Bone Marrow Micronucleus Test
A mouse bone marrow micronucleus test of ZG0128 has been performed. After multiple doses of ZG0128 are given to mice via oral gavage, the incidence of micronucleated polychromatic erythrocytes in the bone marrow is observed to estimate the damage to chromosomal integrity in bone marrow cells and subsequent abnormality of chromosome segregation, so as to determine the presence of genotoxicity. The results […]
once a day for 4 consecutive days, neither damage to the chromosomal integrity in bone marrow cells nor abnormal chromosome segregation was observed. Therefore, the results of the micronucleus test were negative.
A Toxicity Test on Fertility and Early Embryo Development in Wistar Rats Administered ZG0128 by Oral Gavage
A toxicity test on the fertility and early embryo development in Wistar rats given ZG0128 by oral gavage was completed. In this test, female and male rats were given a continuous dose of ZG0128 prior to mating until embryo implantation to observe the toxicity or interference of ZG0128 on the fertility and early embryo development in […]
groups of 18, 36, and 72 mg/kg of ZG0128. […]

[2] = Metabolic stability in liver microsomes; type: in vitro ADME, human
Description: The metabolic stability of ZG0128 (the dihydrochloride monohydrate of ZG0163) was evaluated using human, monkey, dog, rat, and mouse liver microsomes as the in vitro models. The percentages of residues for ZG0128 after incubating in human, monkey, dog, rat, and mouse liver microsomes for 60 minutes was 55.5%, 63.1%, 67.1%, 80.3%, and 79.0%, respectively. The CLint values of in vivo clearance were calculated to be 24.1, 21.6, 33.4, 10.7, 26.0 mL/min/kg, respectively. Thus its was speculated that ZG0128 was a medium clearance drug in humans, monkeys, and mice, a high clearance drug in dogs, and a low clearance drug in rats.
Using UPLC-UV/Q-TOF MS, the potential metabolites of ZG0128 in various liver microsomes (human, monkey, dog, rat and mouse liver microsomes) incubation systems were identified and the metabolic pathways of ZG0128 were speculated. The main metabolite of ZG0128 in above five types of liver microsomes were primary alcohol metabolite formed by morpholine ring-opening (M3). […]

[3] = Plasma pharmacokinetics, single ascending dose (SAD); type: in vivo, human; settings: for Cmax, geometric mean (CV%) / Tmax, median (min–max): fasting
Description: In SAD part, volunteers were designed into eight SAD cohorts (25, 50, 100, 150, 200, 250, 300 and 400 mg). Among these cohorts, 25 mg was bisected by the 50 mg specification under good manufacturing practices (GMP) condition and provided the certificate of analysis. […] Jaktinib or placebo was administrated after an overnight fast.
For MAD cohorts, blood samples were collected at 0, 0.25, 0.5, 1, 1.5, 2, 3, 4, 5, 6, 8 and 12 h on day 1; 0 h on day 2, 3, 4, 6 and 7; 0, 0.25, 0.5, 1, 1.5, 2, 3, 4, 5, 6, 8, 12, 24, 36 and 48 h on day 10. In food effect cohort, blood samples were collected at 0, 0.25, 0.5, 1, 1.5, 2, 3, 4, 5, 6, 8, 12, 24, 36, 48, 72, 96 and 120 h in period one of group A; 0, 0.25, 0.5, 1, 1.5, 2, 3, 4, 5, 6, 8, 12, 24, 36 and 48 h in period two of group A and the two periods of group B. Blood samples were centrifuged at 3,000 rpm for 10 min at 2–8 °C and stored at -80 °C until liquid chromatography-mass spectrophotometry (LC-MS/MS) analysis. Urine and feces samples were collected in period one of group A of food effect cohort with the intervals 0, 0–6, 6–12, 12–24, 24–48, 48–72, 72–96, 96–120 and 0–120 h, respectively. […]

[4] = Treatment-related AEs (NCI CTCAE), MAD cohorts; type: in vivo, human
Description: MAD study was conducted after evaluating the tolerance of the single dose 100 mg cohort. In MAD part, volunteers were designed into five cohorts (100 mg q24h, 150 mg q24h, 100 mg q12h, 200 mg q24h, 150 mg q12h). […] The MAD part was initiated after the safety and tolerance evaluation from SAD 100 mg cohorts. Progression to higher MAD doses was allowed after review the safety data of the prior MAD cohorts.
Dose-limiting toxicities (DLTs) were defined according to the NCI CTCAE v.4.03 as any occurrence of the following drug-related adverse events (AEs): more than one third of volunteers suffered Grade ≥4 drug-related hematological toxicities or Grade ≥3 drug-related nonhematological toxicities; one drug-related serious adverse events (SAEs).

[5] = 25–400 mg, linear mixed effects model

Cl.Cl.O.[2H]C1([2H])COCC([2H])([2H])N1c1ccc(Nc2nccc(-c3ccc(C(=O)NCC#N)cc3)n2)cc1 [ZG0128, Jaktinib Dihydrochloride Monohydrate]
micronucleus test result [1]: negative | CLint of in vivo clearance [2]: 24.1 mL/min/kg | percentage of residue after 60 minutes [2]: 55.5%

Jaktinib
slope (90% CI) for ln AUC0-∞ vs dose [3, 5]: 1.15 (0.96–1.34) | slope (90% CI) for ln Cmax vs dose [3, 5]: 1.00 (0.86–1.15) | Cmax, geometric mean (CV%) ([3]; single 25 mg dose): 34.50 (51.6) ng/ml | Tmax, median (min–max) ([3]; single 25 mg dose): 2.00 (1.00–4.00) h | Cmax, geometric mean (CV%) ([3]; single 50 mg dose): 77.56 (72.8) ng/ml | Tmax, median (min–max) ([3]; single 50 mg dose): 3.00 (0.50–5.00) h | Cmax, geometric mean (CV%) ([3]; single 100 mg dose): 183.48 (33.3) ng/ml | Tmax, median (min–max) ([3]; single 100 mg dose): 1.25 (0.50–3.00) h | Cmax, geometric mean (CV%) ([3]; single 150 mg dose): 297.18 (36.6) ng/ml | Tmax, median (min–max) ([3]; single 150 mg dose): 2.50 (1.50–4.00) h | Cmax, geometric mean (CV%) ([3]; single 200 mg dose): 354.52 (44.6) ng/ml | Tmax, median (min–max) ([3]; single 200 mg dose): 2.50 (1.00–3.00) h | Cmax, geometric mean (CV%) ([3]; single 250 mg dose): 404.20 (36.9) ng/ml | Tmax, median (min–max) ([3]; single 250 mg dose): 2.00 (1.00–4.00) h | Cmax, geometric mean (CV%) ([3]; single 300 mg dose): 510.54 (35.4) ng/ml | Tmax, median (min–max) ([3]; single 300 mg dose): 3.00 (0.50–5.00) h | Cmax, geometric mean (CV%) ([3]; single 400 mg dose): 579.35 (42.6) ng/ml | Tmax, median (min–max) ([3]; single 400 mg dose): 3.50 (2.00–5.00) h | CL/F, range across cohorts ([3]; single dose 25–400 mg): 76.212 to 150.190 L/h | Vz/F, range across cohorts ([3]; single dose 25–400 mg): 533.561 to 1033.554 L | median Tmax, range across cohorts ([3]; single dose 25–400 mg jaktinib): 1.25 to 3.5 h | t1/2, range across cohorts ([3]; single dose 25–400 mg jaktinib): 2.952 to 9.040 h | diarrhea incidence ([4]; MAD jaktinib group): 22.5% | dizziness incidence ([4]; MAD jaktinib group): 17.5% | leukopenia incidence ([4]; MAD jaktinib group): 12.5% | volunteers with treatment-related AEs ([4]; all MAD cohorts): 74.0% | deaths, SAEs and Grade ≥4 AEs ([4]; all cohorts (SAD, MAD, food effect)): No deaths, SAEs and Grade ≥4 AEs were reported | Neutropenia incidence ([4]; in vivo): 27.5% | maximally tolerated dose ([4]; multiple dose, q24 h): 200 mg
